# Data as given in ChEMBL document CHEMBL1123144, “Studies on 4(1H)-quinazolinones. 5. Synthesis and antiinflammatory activity of 4(1H)-quinazolinone derivatives” (J Med Chem, 1985).
# What was measured:
# [1] = tested on: Rattus norvegicus; test: Percent inhibition against carrageenan-induced rat paw edema at 50 mg/kg dose administered perorally; 0-10%; assay type: functional; details: route oral
# [2] = tested on: Rattus norvegicus; test: Percent inhibition against carrageenan-induced rat paw edema at 50 mg/kg dose administered perorally; 21-30%; assay type: functional; details: route oral
# [3] = tested on: Rattus norvegicus; test: Percent inhibition against carrageenan-induced rat paw edema at 50 mg/kg dose administered perorally; 41-50%; assay type: functional; details: route oral
# [4] = tested on: Rattus norvegicus; test: Percent inhibition against carrageenan-induced rat paw edema at 50 mg/kg dose administered perorally; assay type: functional; details: route oral
# [5] = tested on: Rattus norvegicus; test: Percent inhibition against carrageenan-induced rat paw edema at 50 mg/kg dose administered perorally; 11-20%; assay type: functional; details: route oral
# [6] = tested on: Mus musculus; test: Number of mice bearing ulcer at dose 30 mg/kg out of 5 mices tested; assay type: functional
# [7] = tested on: Mus musculus; test: Ulcer index by number of mice bearing ulcer at dose 30 mg/kg out of 5 mice tested; assay type: functional
# [8] = tested on: Mus musculus; test: Toxicity by number of mice dead at dose 500 mg/kg out of 5 mice tested by oral administration route; Value represented as 0/5; assay type: organism-based; design: dose 500 mg/kg, route oral; details: in vivo
# [9] = tested on: Rattus norvegicus; test: Analgesic activity by oral administration route; assay type: functional
# [10] = tested on: Rattus norvegicus; test: Anti-inflammatory activity following oral administration; assay type: functional
# [11] = tested on: Mus musculus; test: Number of mice bearing ulcer at dose 60 mg/kg out of 5 mices tested; assay type: functional
# [12] = tested on: Mus musculus; test: Ulcer index by number of mice bearing ulcer at dose 60 mg/kg out of 5 mice tested; assay type: functional
# [13] = tested on: Mus musculus; test: Toxicity by number of mice dead at dose 500 mg/kg out of 5 mice tested by oral administration route; Value represented as 1/5; assay type: organism-based; design: dose 500 mg/kg, route oral; details: in vivo
# [14] = tested on: Rattus norvegicus; test: Percent inhibition against carrageenan-induced rat paw edema at 50 mg/kg dose administered perorally; 31-40%; assay type: functional; details: route oral
# [15] = tested on: Mus musculus; test: Number of mice bearing ulcer at dose 45 mg/kg out of 5 mices tested; assay type: functional
# [16] = tested on: Mus musculus; test: Ulcer index by number of mice bearing ulcer at dose 45 mg/kg out of 5 mice tested; assay type: functional
# [17] = tested on: Mus musculus; test: Toxicity by number of mice dead at dose 500 mg/kg out of 5 mice tested by oral administration route; Value represented as 5/5; assay type: organism-based; design: dose 500 mg/kg, route oral; details: in vivo
smiles,measurement,setting,value
O=c1nc(C(F)(F)F)n(-c2ccccc2)c2ccccc12,inhibition in vivo at 50 mg/kg,[1],10%
COc1ccccc1-c1nc(=O)c2ccccc2n1C(C)C,inhibition in vivo at 50 mg/kg,[1],10%
CCN(CC)Cc1nc(=O)c2ccccc2n1-c1cccc(C(F)(F)F)c1,inhibition in vivo at 50 mg/kg,[2],30%
CC(C)n1c(-c2ccc(F)cc2)nc(=O)c2ccc(Cl)cc21,inhibition in vivo at 50 mg/kg,[2],30%
CC(C)n1c(-c2ccc(F)cc2)nc(=O)c2ccccc21,inhibition in vivo at 50 mg/kg,[3],50%
CC(C)n1c(-c2ccccc2Cl)nc(=O)c2cc(Cl)ccc21,inhibition in vivo at 50 mg/kg,[3],50%
CC(C)c1nc(=O)c2ccc([N+](=O)[O-])cc2n1-c1ccccc1,inhibition in vivo at 50 mg/kg,[1],10%
CC(C)c1nc(=O)c2ccccc2n1-c1cccc(C(F)(F)F)c1,inhibition in vivo at 50 mg/kg,[2],30%
Cc1nc(=O)c2ccccc2n1-c1cccc(C(F)(F)F)c1,inhibition in vivo at 50 mg/kg,[1],10%
CC(C)n1c(-c2ccc(Cl)c(Cl)c2)nc(=O)c2ccccc21,inhibition in vivo at 50 mg/kg,[3],50%
CC(C)n1c(-c2ccccc2Cl)nc(=O)c2ccccc21,inhibition in vivo at 50 mg/kg,[3],50%
O=c1nc(C2CC2)n(-c2ccccc2)c2ccccc12,inhibition in vivo at 50 mg/kg,[4],≥ 51%
CC(C)n1c(-c2ccccc2F)nc(=O)c2cc(Cl)ccc21,inhibition in vivo at 50 mg/kg,[5],20%
CC(C)N1c2ccccc2C(=O)NC1c1ccccc1Cl (configuration not stated),inhibition in vivo at 50 mg/kg,[1],10%
CC(C)c1nc(=O)c2ccccc2n1-c1ccc(CC(=O)O)cc1,inhibition in vivo at 50 mg/kg,[5],20%
CC(C)n1c(-c2ccccc2Cl)nc(=O)c2cc(F)ccc21,inhibition in vivo at 50 mg/kg,[2],30%
CC(=O)c1ccc(-n2c(C(C)C)nc(=O)c3ccccc32)cc1,inhibition in vivo at 50 mg/kg,[2],30%
CC(C)n1c(-c2ccccc2)nc2ccccc2c1=O,inhibition in vivo at 50 mg/kg,[2],30%
CC(C)c1nc(=O)c2ccccc2n1-c1ccc(Cl)cc1,inhibition in vivo at 50 mg/kg,[4],≥ 51%
CC(C)Cc1nc(=O)c2ccccc2n1-c1ccccc1,inhibition in vivo at 50 mg/kg,[2],30%
CC(=O)c1ccc2c(c1)c(=O)nc(C(C)C)n2-c1ccccc1,inhibition in vivo at 50 mg/kg,[1],10%
CC(C)n1c(-c2ccccc2)nc(=O)c2c(Cl)cccc21,inhibition in vivo at 50 mg/kg,[5],20%
Cc1ccc2c(-c3ccccc3)nc(=O)n(C(C)C)c2c1 [PROQUAZONE],No. of mice,[6],4
same,Ulcer Index,[7],0.12
same,Toxicity,[8],0
same,ED30,[9],20 mg/kg
same,ED30,[10],10 mg/kg
same,inhibition in vivo at 50 mg/kg,[3],50%
CC(C)n1c(-c2ccccc2F)nc(=O)c2ccccc21,No. of mice,[11],1
same,Ulcer Index,[12],0.1
same,Toxicity,[13],1
same,ED30,[9],65 mg/kg
same,ED30,[10],20 mg/kg
same,inhibition in vivo at 50 mg/kg,[4],≥ 51%
CC(C)c1nc(=O)c2ccccc2n1-c1ccc(N)cc1,inhibition in vivo at 50 mg/kg,[2],30%
CC(C)c1nc(=O)c2cc(CC(=O)O)ccc2n1-c1ccccc1,inhibition in vivo at 50 mg/kg,[1],10%
Cc1ccc2c(=O)nc(C(C)C)n(-c3ccccc3)c2c1,inhibition in vivo at 50 mg/kg,[2],30%
O=c1nc(C2CC2)n(-c2ccc(Cl)cc2)c2ccccc12,inhibition in vivo at 50 mg/kg,[1],10%
CC(C)c1nc(=O)c2ccccc2n1-c1ccc([N+](=O)[O-])cc1,inhibition in vivo at 50 mg/kg,[14],40%
O=c1nc(CCl)n(-c2ccccc2)c2ccccc12,inhibition in vivo at 50 mg/kg,[1],10%
CC(C)n1c(-c2ccccc2)nc(=O)c2cc(Br)ccc21,inhibition in vivo at 50 mg/kg,[2],30%
CC(C)n1c(-c2ccc(Cl)cc2)nc(=O)c2ccccc21,No. of mice,[15],0
same,Ulcer Index,[16],0
same,Toxicity,[17],5
same,ED30,[9],44 mg/kg
same,ED30,[10],15 mg/kg
same,inhibition in vivo at 50 mg/kg,[3],50%
CC(C)c1nc(=O)c2ccccc2n1-c1ccccc1Cl,inhibition in vivo at 50 mg/kg,[5],20%
Cc1ccc2c(c1)c(=O)nc(C(C)C)n2-c1ccccc1,inhibition in vivo at 50 mg/kg,[2],30%
CC(C)c1nc(=O)c2ccccc2n1-c1ccc(F)cc1,ED30,[9],76 mg/kg
same,ED30,[10],30 mg/kg
same,inhibition in vivo at 50 mg/kg,[3],50%
COC(=O)CCc1nc(=O)c2ccccc2n1-c1ccccc1,inhibition in vivo at 50 mg/kg,[1],10%
CCCCc1nc(=O)c2ccccc2n1-c1ccccc1,inhibition in vivo at 50 mg/kg,[1],10%
CC(C)n1c(-c2ccccc2Br)nc(=O)c2ccccc21,inhibition in vivo at 50 mg/kg,[1],10%
CC(C)c1nc2ccccc2c(=O)n1-c1ccccc1,inhibition in vivo at 50 mg/kg,[2],30%
CC(C)n1c(-c2ccccc2)nc(=O)c2ccccc21,inhibition in vivo at 50 mg/kg,[3],50%
